Consider eleven molecules from US9459246B2, “Induced intercellular communication” (Nodality, Inc., priority 2009, dated 2016).

Several values for one entry are separate records, joined by “and”; a condition that tells them apart may be missing. Identical values can stand only once.

The test system of assay [1] is AML cells. The experiment in a line: SCNP of basal and growth-factor modulated signaling in AML patient sample with kinase inhibitors (Example 17, Arm #1). In kind it is cell-based, human. The conditions noted are these: patient #1910-017. From the text: This study used peripheral blood or bone marrow samples (n=9), which had been previously ficoll separated and cryopreserved. Patient characteristics are shown Table 8. One cryovial per patient was used. Samples were thawed and centrifuged over ficoll to remove dead cells and debris.
Samples were split to perform the following: Arm #1 assessed basal and modulated signaling in the JAK/STAT, PI3K/mTor, and MEK/ERK pathways in the presence and absence of specific kinase inhibitors. Kinase inhibitors were added 1 hr before the addition of the signaling stimulus. Signaling was induced by individual addition of stem cell factor, Flt3 ligand, G-CSF, IL-3, or thrombopoietin (TPO) for a short period of time (5-15 min). Cells were then fixed, permeabilized, and stained with a cocktail of cell surface and phospho-specific antibodies to measure signaling in multiple cell types. Signaling data is calculated in each cell type using a fold-change metric comparing each condition to its basal state: example: (stimulated^+/−inhibitor)/(unstimulated). Also, cells with an apoptotic phenotype were excluded from the signaling analysis by gating.

Assay [2] has as its system AML cells. The assay is described as follows: Cytotoxic and cytostatic impact of drugs on cultured AML patient cells (Example 17, Arm #2). It is filed as cell-based, human. The conditions noted are these: patient #1910-017, 48 hours.
Method: This study used peripheral blood or bone marrow samples (n=9), which had been previously ficoll separated and cryopreserved. […] One cryovial per patient was used. Samples were thawed and centrifuged over ficoll to remove dead cells and debris. […] After 2 days the cells were then distributed into wells containing various drugs, wherein the cells were cultured for 48 hours. The cultures were fixed, permeabilized, and stained with a cocktail of antibodies to measure complete cell death, apoptosis, S/G2 phase, M-Phase, and DNA damage. These readouts were also obstained from samples cultured separately with individual growth factors (no drugs) for 4 days.
The test system of assay [3] is PBMCs.
Assay [4] deals with PBMCs. The assay is described as follows: SCNP intracellular signaling readouts in PBMCs treated 24 hours with modulator (SAg or LPS) plus inhibitor (Example 9, FIGS. 18-21). It is filed as cell-based, human.
The test system of assay [5] is peripheral blood mononuclear cells (PBMC). The assay is described as follows: SCNP assay of SAg-modulated PBMC signaling over time, with or without cytokine pathway inhibitors (Examples 10, 11, 13). It is filed as cell-based, human.
Another assay deals with monocytes in PBMC. The experiment in a line: Flow cytometry of intracellular cytokines in SAg-modulated PBMC with inhibitors (Example 12). In kind it is cell-based, human. For orientation: In flow cytometry, cells or beads pass a laser one at a time.
In assay [6] the test system is PBMCs. The assay is described as follows: SCNP signaling in LPS-treated PBMCs with inhibitors (Example 14, FIGS. 22, 23). The following applies: LPS plus inhibitor.
In assay [7] the test system is PBMCs. It is filed as cell-based, human. The following applies: PBMC, 24 hours.
The subject of assay [8] is PBMCs. The assay is described as follows: SCNP of immunomodulator signaling nodes in PBMC subpopulations of 60 healthy donors (Example 16). In kind it is cell-based, human. The conditions noted are these: 15 min.
Method: Cryopreserved PBMC samples were thawed at 37° C. and resuspended in RPMI 1% FBS before staining with amine aqua viability dye (Invitrogen, Carlsbad, Calif.). Cells were resuspended in RPMI 10% FBS, aliquoted to 100,000 cells per well of 96-well plates, and rested for 2 h at 37° C. prior to 15 min 37° C. incubation with the following modulators: 1000 IU/ml IFNα (PBL, Piscataqay, N.J.); 250 ng/ml IFNγ, 50 ng/ml IL4, 50 ng/ml IL10, α-IgD 5 m/ml (BD, San Jose, Calif.); 50 ng/ml IL2, 50 ng/ml IL6, 50 ng/ml IL27, CD40L 0.5 μg/ml (R&D, Minneapolis, Minn.); R848 5 μg/ml (Invivogen, San Diego, Calif.); LPS 1 μg/ml, PMA 40 nM (Sigma Aldrich, St. Louis, Mo.). After exposure to modulators, cells were fixed with paraformaldehyde and permeabilized with 100% ice-cold methanol as previously described (5). […]
Flow cytometry data was acquired using FACS DIVA software (BD, San Jose, Calif.) on two LSRII Flow Cytometers (BD, San Jose, Calif.). All flow cytometry data were analyzed with WinList (Verity House Software, Topsham, Me.). […]
Two different metrics are utilized in this study to measure the levels of intracellular signaling proteins in either the unmodulated state or in response to modulation. […] The Equivalent Number of Reference Fluorophores (ERFs), fluorescence measurements calibrated by rainbow calibration particles on each 96-well plate, serve as a basis for all metric calculations (6, 7).
For assay [9], the system named is PBMCs. The assay is described as follows: SCNP of IFN-α signaling in PBMCs from healthy donors (Examples 5 and 15). In kind it is cell-based, human. On the procedure:
(§1) Methods: IFN-α-mediated signaling responses were measured by SCNP in PBMC samples from 12 healthy donors. PBMCs were processed for flow cytometry by fixation and permeabilization followed by incubation with fluorochrome-conjugated antibodies that recognize extracellular lineage markers and intracellular signaling molecules. The levels of several phospho-proteins (p-Stat1, p-Stat3, p-Stat4, p-Stat5, p-Stat6, and p-p38) were measured in multiple cell populations (CD14+ monocytes, CD20+ B cells, CD4+ CD3+ T cells, and CD4− CD3+ T cells) at 15 minutes, 1, 2 and 4 hours post IFN-α exposure as described in Example 6.
as §1, with “IFN-α-mediated” for “Methods: IFN-α-mediated”

The test system of another assay is whole blood. The assay is described as follows: SCNP of cytokine-induced JAK/STAT signaling in whole blood of healthy donors (Example 4). It is filed as cell-based, human. Here is the method:
Method: Whole blood from 11 healthy donors (20-65 yrs, 7 males, 4 females, 8 Caucasians, 2 Hispanics, 1 East Asian) was stimulated at 37° C. in 96-well plates with a low, medium, and high dose of GM-CSF, IFN-α, IL-27 and IL-6, each added separately, as described in Example 5. For each dose, a stimulation time course was run with 6 time points between 3 and 45 minutes. […] The SCNP assay was performed using a fluorophore-labeled antibody cocktail to simultaneously measure signaling in six distinct cell populations, including: neutrophils, CD20+ B cells, CD3+CD4+T cells, CD3+CD4− T cells (CD8 enriched), CD3-CD20-lymphocytes (NK cell enriched), and CD14+ monocytes. The median fluorescent intensity of phospho (p)-STAT1(Y701), p-STAT3(Y705), and p-STAT5(Y694) were measured in each defined cell population for each experimental condition.

Regarding `Cn1cnc2c(F)c(Nc3ccc(Br)cc3Cl)c(C(=O)NOCCO)cc21` [AZD-6244], in the assay on AML cells [1], the “SCF induced pAKT” value is reported as “no inhibition”, the “SCF induced pS6” value is recorded as “partial inhibition” and the SCF-pERK result is recorded as “complete inhibition”.
`Nc1ccn([C@@H]2O[C@H](CO)[C@@H](O)[C@@H]2O)c(=O)n1` [AraC]: the “drug induced apoptosis of myeloid cells” value with AML cells [2] is listed as “resisted apoptosis”.
As for `Cn1c(=O)n(-c2ccc(C(C)(C)C#N)cc2)c2c3cc(-c4cnc5ccccc5c4)ccc3ncc21` [BEZ235], in the assay on AML cells [1], the “SCF induced pAKT” value is on record as “complete inhibition” and the “SCF induced pS6” value is on record as “partial inhibition”.
As to `C[C@@H]1CCN(C(=O)CC#N)C[C@@H]1N(C)c1ncnc2[nH]ccc12` [CP-690550], in the assay with AML cells [1], the IL-3 signaling result is given as “complete inhibition”, the TPO signaling result is “partial inhibition” and the “high basal level of p-STAT5 signaling” value was “inhibited”.
With `CS(=O)(=O)N1CCN(Cc2cc3nc(-c4cccc5[nH]ncc45)nc(N4CCOCC4)c3s2)CC1` [GDC-0941], in the assay on AML cells [1], the “SCF induced pAKT” value was “partial inhibition” and the “SCF induced pS6” value is on record as “partial inhibition”.
Consider `C[C@@H]1CCN(C(=O)CC#N)C[C@@H]1N(C)c1ncnc2[nH]ccc12` [Tofacitinib], for which the inhibition with PBMCs [3] is 102% and 79%. Moreover, in the assay with PBMCs [4] (LPS modulation, FIG. 21), the “STAT signaling / STAT phosphorylation” value was “inhibited”. In the assay with PBMCs [4] (SAg modulation, FIG. 19), the all measured signaling result was “inhibited all signaling except for monocyte p-STAT6”. Moreover, the lymphocyte signaling entry with PBMCs [4] (SAg modulation, FIG. 20) was “inhibited”. For the same molecule, in assay [5], the “PI3K pathway activation in lymphocytes” value was “blocked”; the “STAT induction evoked by SAg modulation” value is reported as “completely abrogated”; the “overall inhibition of SAg-evoked signaling” value was “broad and potent inhibition of the JAK/STAT pathway and down-stream signaling”; the “p-STAT5 and PI3K pathway signaling in CD4+ T cells” value was “this inhibition pattern extended to CD4+ T cells”. Also, in assay [5], the “p-STAT5 and PI3K pathway signaling in CD4− T cells” value is on record as “inhibited”; the “p-STAT levels in CD4− T cells” value was “restored p-STAT levels to the unmodulated condition”; the “phosphorylation of STAT1 and STAT5” value is reported as “weakly reduced”. In the assay with monocytes in PBMC, the “IL-6 in monocytes at other time points” value is “induced IL-6 at the 2 hour and 24 hour time points”; the “frequency of monocytes expressing TNFα” value was determined as 46%; the “monocytes expressing IL-6 (IL-6+)” value was found to be 44%. The “p-STAT1 and p-STAT3 induction in lymphocytes” value in the assay with PBMCs [6] (2 hours) is “completed abrogated”. Moreover, the p-STAT3 in lymphocytes entry in the assay on PBMCs [6] (later time points) is given as “partially inhibited”. For the same molecule, in the assay on PBMCs [7] (SAg plus inhibitor), the “B cell IL-6 production” value is recorded as “blocked”; the “T cell cytokine production (IL-2 and TNF by CD4+ cells)” value is on record as “blocked”. In the assay on PBMCs [7] (inhibitor added), the “IL-6 production by monocytes” value is recorded as “induced”. Further, the TNFα production entry in the assay with PBMCs [7] (monocytes, LPS plus inhibitor) was “blocked”.
As to `CC(C)C[C@H](NC(=O)[C@H](Cc1ccccc1)NC(=O)c1cnccn1)B(O)O` [bortezomib], the “cell death and cytostasis” value in the assay with AML cells [2] was “induced considerable levels of cell death and cytostasis”.
With IFN-α, the “pStat activation across immune cell subpopulations” value in the assay on PBMCs [8] (1000 IU/ml) is “at least one pStat protein was activated in response to IFNα in all of the immune cell subpopulations”. In addition, the “peak response for activation of p-Stat4, p-Stat6, and p-p38” value with PBMCs [9] (majority of cell types tested) was determined as 1 h. In addition, the “peak response for activation of p-Stat1, p-Stat3, and p-Stat5” value with PBMCs [9] (most of the cell types) is 15 min. Moreover, in the assay with whole blood (all cell subsets), the “time of peak activation of all 3 STAT proteins” value came out at 10 min.
For IL-6: cytokine used as modulator, in the assay with whole blood (CD4+ T cells and monocytes), the “time of peak p-STAT1 and p-STAT5” value fell in the range of 10 to 15 min; the “time of peak p-STAT3 levels” value stood at 3 min.

B1: IFNγ: cytokine used as modulator (protein, UniProt P01579 24-161, looked up)
Interferon gamma: QDPYVKEAENLKKYFNAGHSDVADNGTLFLGILKNWKEESDRKIMQSQIVSFYFKLFKNFKDDQSIQKSVETIKEDMNVKFFNSNKKKRDDFEKLTNYSVTDLNVQRKAIHELIQVMAELSPAAKTGKRKRSQMLFRG
On to B1, for which, in the assay with PBMCs [8] (250 ng/ml), the “pStat1 level by cell type” value is “produced the highest level of pStat1 in monocytes, lower levels in B cells, and a much weaker pStat1 response in T cells”.

B2: IL-27: cytokine used as modulator (protein, UniProt Q8NEV9 29-243; Q14213 21-229, looked up)
Interleukin-27 subunit alpha: FPRPPGRPQLSLQELRREFTVSLHLARKLLSEVRGQAHRFAESHLPGVNLYLLPLGEQLPDVSLTFQAWRRLSDPERLCFISTTLQPFHALLGGLGTQGRWTNMERMQLWAMRLDLRDLQRHLRFQVLAAGFNLPEEEEEEEEEEEEERKGLLPGALGSALQGPAQVSWPQLLSTYRLLHSLELVLSRAVRELLLLSKAGHSVWPLGFPTLSPQP
Interleukin-27 subunit beta: RKGPPAALTLPRVQCRASRYPIAVDCSWTLPPAPNSTSPVSFIATYRLGMAARGHSWPCLQQTPTSTSCTITDVQLFSMAPYVLNVTAVHPWGSSSSFVPFITEHIIKPDPPEGVRLSPLAERQLQVQWEPPGSWPFPEIFSLKYWIRYKRQGAARFHRVGPIEATSFILRAVRPRARYYVQVAAQDLTDYGELSDWSLPATATMSLGK
With B2, the “time of peak activation of p-STAT1 and p-STAT3” value in the assay with whole blood (T cell subsets, B cells, and monocytes) was found to be 30 min.

The inhibition is the drop in the measured response relative to a control, in per cent.
